Reference: US8372430B2, “Compositions, methods, and kits useful for the alleviation of gastrointestinal effects” (priority 2002, dated 2013)

What was measured:
[1] = system: male, Sprague-Dawley rats; assay: Fur appearance score: separation of excreted dietary oil from fecal matter in rats fed food compositions; assay type: in vivo, rat; conditions: food with 0.04% orlistat, no calcium stearate, ad libitum 11 days, assessed days 7 and 11; scale 1 (no oil visible on fur) to 5 (>90% of fur oiled)
Source text: Groups of male, Sprague-Dawley rats (commercially available from Harlan Labs, Indianapolis, Ind.), were presented with a composition, which was a food composition, containing either 0.04% orlistat, by weight of the composition, or the combination of 0.04% orlistat and 1%, 0.5%, or 0.25% calcium stearate, all by weight of the composition. The fat content of each composition provided 30% of the consumed energy of the rat. Another group of rats (also male, Sprague Dawley, commercially available from Harlan Labs, Indianapolis, Ind.) were presented with the same food compositions, except devoid of orlistat and calcium stearate (“control compositions”). All rats consumed their respective compositions ad libitum for 11 days.
On the seventh and eleventh days of these dietary regimens, the appearance of each rat was viewed by assessors not aware of the identity of composition consumed by the rats. Separation of oil from the other fecal matter of each rat was determined by the use of a scale that quantified the fraction of the rat's fur that was coated with excreted dietary oil. […] Intermediate scores of “2,” “3,” and “4” indicated partial covering of the rat's fur, with “2” corresponding to approximately 10% coverage or less, “3” corresponding to approximately greater than 10% to approximately 50% coverage, and “4” corresponding to approximately greater than 50% to approximately 90% coverage.

overweight human subject [2] = assay: Example 4: XENICAL regimen with separate magnesium stearate wafer in an overweight human subject; assay type: in vivo
Procedure: XENICAL® is prescribed to an overweight human subject at a therapeutic dose of 120 mg orlistat taken with each of three daily meals. This dose causes a reduction in the absorption of dietary fat such that total caloric intake by the subject is reduced by approximately 10%, relative to the subjects normal dietary energy intake. […] In particular, magnesium stearate is provided at an amount of 1 gram incorporated into a wafer that is consumed with each meal, resulting in a total consumption of 3 grams per day of magnesium stearate. […] The efficacy of the XENICAL® is unaffected by the addition of magnesium stearate to the diet.

overweight human subject [3] = assay: Example 5: XENICAL regimen changed to XENICAL plus behenic acid capsules in an overweight human subject; assay type: in vivo; conditions: behenic acid 1.2 g capsule with XENICAL (120 mg orlistat) at each meal
Procedure: An overweight human subject is given a therapeutic dose of XENICAL@ (360 mg orlistat per day/three doses of 120 mg orlistat with each meal) to assist in the reduction of body weight.
When these symptoms are first observed, the regimen is modified to a combination of XENICAL® and behenic acid. At each meal, the subject consumes two capsules. The first capsule is XENICAL® (120 mg orlistat) while the second capsule contains the behenic acid (1.2 g). These capsules are co-packaged in a kit for the convenience of the subject.

**Q.** Which “mean fur appearance score” value [1] does the source give for `CCCCCCCCCCCC(CC1OC(=O)C1CCCCCC)OC(=O)C(CC(C)C)NC=O` (stereo not shown) [orlistat, tetrahydrolipstatin] here?
**A.** 2.4

**Q.** Which “effect on gastrointestinal discomfort and anal leakage of unabsorbed oil” value (overweight human subject [2]; 1 gram magnesium stearate in a wafer with each meal (3 grams per day), together with XENICAL) does the source give for magnesium stearate here?
**A.** prevents the gastrointestinal discomfort and anal leakage of unabsorbed oil

**Q.** What about the “efficacy of XENICAL on addition of magnesium stearate to the diet” value (overweight human subject [2]; 3 grams per day magnesium stearate with XENICAL 120 mg orlistat per meal) of the same molecule?
**A.** unaffected

**Q.** For `CCCCCCCCCCCCCCCCCCCCCC(=O)O` [behenic acid], which “state of the excreted fat” value (overweight human subject [3]) is on record?
**A.** stiffened
